From patent publication EP4755880A1, “SUBSTITUTED NITROGEN-CONTAINING BICYCLIC COMPOUND AND USE THEREOF” (Sunshine Lake Pharma Co., Ltd., priority 2023, dated 2025)

Experiments:
DLD-1 BRCA2(-/-) cells = test: Inhibition of proliferation of DLD-1 BRCA2(-/-) cells (CTG method); format: cell-based; conditions: Homo sapiens, DLD-1, 168 h; 7 days incubation, CellTiter-Glo
Experimental: • 1. Cell Pretreatment: DLD-1 BRCA2(-/-) cells were cultured in growth medium 1640 + 10% FBS (fetal bovine serum) + 1% Penicillin-Streptomycin. Cells in the logarithmic growth phase were digested with trypsin-EDTA, centrifuged, and resuspended. DLD-1 BRCA2(-/-) cells were seeded at 1,000 cells/well in sterile 96-well opaque plates, 75 µl per well. After seeding, the cell culture plates were incubated overnight at 37 °C with 5% CO2 before adhesion, followed by treatment with the test compounds. • 2. DLD-1 BRCA2(-/-) Cell Drug Treatment: The test compound was prepared as a 10 mM stock solution using DMSO. The test compound was then diluted to a 4× working solution using growth medium (starting at 40 µM, with 9 4-fold dilutions). 25 µl of 4× working solution was added to each well to achieve final concentrations of 10000, 2500, 625, 156, 39, 9.7, 2.4, 0.61, and 0.152 nM, respectively. Blank control wells containing the same DMSO concentration were also included, with three replicates for each concentration. After adding the test compound, the cells were incubated at 37 °C with 5% CO2 for 7 days. • 3. After incubation, 100 µl of CellTiter-Glo® Reagent was added to each well, and […] intensity was measured. A curve was fitted using GraphPad software, and the IC50 value for cell proliferation inhibition was calculated.

MDA-MB-436 cells = test: Inhibition of proliferation of MDA-MB-436 cells (CellTiter-Glo); format: cell-based; conditions: Homo sapiens, MDA-MB-436, 168 h, 7 days incubation
Experimental: • 1. Cell Pretreatment: MDA-MB-436 cells were cultured in DMEM + 10% FBS + 1% penicillin-dip antibiotics + 1% ITS + 16 µg/ml glutathione. Cells in the logarithmic growth phase were digested with trypsin-EDTA, centrifuged and resuspended, and then seeded at a rate of 500-1000 cells/well in sterile 96-well opaque plates, 90 µl per well. After seeding, the cell culture plates were incubated overnight at 37°C with 5% CO2 before drug treatment. • 2. Drug treatment of MDA-MB-436 cells: The test compound was prepared as a 10 mM stock solution using DMSO. The drug was then diluted to a 10× working solution using growth medium (the compound was started at 100 µM and diluted 4-fold to achieve 9 concentrations). 10 µl of the 10× working solution was added to each well to achieve final drug concentrations of 10000, 2500, 625, 156, 39, 9.7, 2.4, 0.61, and 0.152 nM, respectively. Blank control wells containing the same DMSO concentration were also included, with three replicates for each concentration. After drug addition, the cells were incubated at 37°C with 5% CO2 for 7 days. • 3. After incubation, 100 µl of CellTiter-Glo® Reagent was added to each well, and luminescence was measured. The IC50 value of cell proliferation inhibition was calculated using GraphPad software to fit the curve. Table E: Results of the inhibitory effect of the compound of this invention on the proliferation of MDA-MB-436 cells.

PARP1 = PARP1 (Homo sapiens, UniProt P09874); test: Inhibition of PARP1 enzyme activity (ELISA, chemiluminescence); format: biochemical; conditions: for IC50: ELISA, histone-coated plate, NAD+, 60 min at 25 °C; for Selectivity PARP2/PARP1: ratio of PARP2 IC50 to PARP1 IC50
PARP2 = PARP2 (Homo sapiens, UniProt Q9UGN5); test: biochemical;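 also: PARP2 enzyme ELISA on histone-coated plates, Strep-HRP detection with chemiluminescence read-out, 10 min compound preincubation with enzyme, inhibition scaled between Max and Min signal controls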
Experimental: Experimental Objective: To evaluate the inhibitory effect of the compounds of the present invention on the enzyme activities of PARP1 and PARP2 using ELISA.
• 1. histone-coated 384-well plates was prepared: 25 µL of histone solution was added to each well and incubated overnight at 4 °C. • 2. PBST buffer, blocking buffer (PBS buffer with 5% BSA and 0.05% Tween-20 added) and detection buffer (20 mM HEPES pH 7.5 + 100 mM NaCl + 2 mM DTT + 0.002% Tween-20 + 0.1% BSA) were prepared. • 3. The histone-coated 3 84-well plate was washed three times with PBST buffer, blocked at room temperature with 50 µL blocking buffer for 1 hour, and then washed three times with PBST buffer. • 4. Test compounds were prepared as 2000-fold stock solutions in DMSO. 50 nL of the stock solution was mixed with 19.95 µL detection buffer, and 5 µL of the gradient-diluted test compound was transferred to each well. • 5. Enzymatic reaction (PARP1): PARP1 & DNA mix was pre-incubated at 25 °C for 10 minutes. 10 µL of the PARP1 & DNA mix was added to each well and incubated with the test compound at room temperature for 10 minutes. […] Finally, the 384-well plate was washed three times with PBST buffer. Enzymatic reaction (PARP2): PARP2 was pre-incubated at 25 °C for 10 minutes. 10 µL of PARP2 was added to each well and incubated with the test compound at room temperature for 10 minutes. […] Finally, the 384-well plate was washed three times with PBST buffer. • 6. Detection (PARP1): 20 µL of anti-Poly/Mono-ADP Ribose Rabbit mAb was added and incubated at room temperature for 1.5 hours, followed by three washes of the 384-well plate with PBST buffer. Then, 20 µL of diluted anti-rabbit IgG, HRP-linked Antibody (diluted 1:2000 in blocking buffer) was added and incubated at room temperature for 1 hour. After washing the plate three times with PBST buffer, 25 µL of a 1:1 mixture of Femto-ECL Substrate A and Femto-ECL Substrate B was added. Detection (PARP2): 25 µL of Strep-HRP was added and incubated at room temperature for 1 hour, followed by three washes of the 384-well plate with PBS buffer. Then, 25 µL of a 1:1 mixture of Femto-ECL Substrate A and Femto-ECL Substrate B was added. • 7. Chemiluminescence intensity was measured using an Envision multimode microplate reader. • 8. Data Processing
The inhibition rate was calculated in Excel using formula (1). inh% = (Max−Signal)/(Max−Min)*100 [formula]
The IC50 value was obtained by fitting the data in XL-Fit using formula (2). Y = bottom + (top−bottom)/(1+(IC50/X)*HillSlope); [formula] wherein Y is the inhibition percentage and X is the compound concentration.

[1] = Pharmacokinetics in mice after intravenous injection or gavage; conditions: BALB/c, mouse, plasma
Experimental: The compounds of the present invention were administered to test animals in the form of 5% DMSO + 30% PEG400 + 65% physiological saline, 10% DMSO + 10% Kolliphor HS15 + 80% Saline, 10% DMSO + 89% (25% SBE-B-CD) + (2% HCl), 20% PEG400 + 80% sterile water for injection, or 10% DMA+ 10% HS15 + 30% PEG400 + 50% sterile aqueous solution for injection. Animals were fasted for 12 hours before administration but had free access to water. For the intravenous administration group, the dose was 1 mg/kg. Blood samples (approximately 0.15 mL) were collected intravenously at the following time points after administration: 0.083, 0.25, 0.5, 1.0, 2.0, 4.0, 6.0, 8.0 and 24 h (dogs) or 0.083, 0.25, 0.5, 1.0, 2.0, 5.0, 7.0 and 24 h (mice and rats) or 0.083, 0.25, 0.5, 1.0, 2.0, 6.0, 8.0 and 24 h (monkeys). EDTA-K2 was pre-added to the blood collection tube as an anticoagulant. The blood samples were centrifuged at 12,000 rpm for 2 minutes, and plasma was collected and stored at -20 °C or - 70 °C. For the gavage administration group, the dosage was 1 mg/kg (mice, dogs, and monkeys) or 5 mg/kg (rats). After administration, venous blood samples (approximately 0.15 mL) were collected at the following time points: 0.25, 0.5, 1.0, 2.0, 4.0, 6.0, 8.0, and 24 h (dogs) or 0.25, 0.5, 1.0, 2.0, 5.0, 7.0, and 24 h (mice and rats) or 0.25, 0.5, 1.0, 2.0, 6.0, 8.0, and 24 h (monkeys). EDTA-K2 was pre-added to the blood collection tube as an anticoagulant. The blood samples were centrifuged at 12,000 rpm for 2 minutes, and plasma was collected and stored at -20 °C or -70 °C.
The collected plasma samples were processed (frozen plasma was thawed at room temperature, vortexed for 15 s to mix, 10-20 µL of plasma was taken, 120-150 µL of acetonitrile solution containing internal standard was added, vortexed for 5 min to mix, centrifuged at 4,000 rpm for 5 min, 100 µL of supernatant was taken, and 120-150 Ml/water (v/v = 1/1) was added and mixed). The concentration of compounds in the plasma was then analyzed by LC-MS/MS.

Sequence of PARP1 (P09874 whole entry): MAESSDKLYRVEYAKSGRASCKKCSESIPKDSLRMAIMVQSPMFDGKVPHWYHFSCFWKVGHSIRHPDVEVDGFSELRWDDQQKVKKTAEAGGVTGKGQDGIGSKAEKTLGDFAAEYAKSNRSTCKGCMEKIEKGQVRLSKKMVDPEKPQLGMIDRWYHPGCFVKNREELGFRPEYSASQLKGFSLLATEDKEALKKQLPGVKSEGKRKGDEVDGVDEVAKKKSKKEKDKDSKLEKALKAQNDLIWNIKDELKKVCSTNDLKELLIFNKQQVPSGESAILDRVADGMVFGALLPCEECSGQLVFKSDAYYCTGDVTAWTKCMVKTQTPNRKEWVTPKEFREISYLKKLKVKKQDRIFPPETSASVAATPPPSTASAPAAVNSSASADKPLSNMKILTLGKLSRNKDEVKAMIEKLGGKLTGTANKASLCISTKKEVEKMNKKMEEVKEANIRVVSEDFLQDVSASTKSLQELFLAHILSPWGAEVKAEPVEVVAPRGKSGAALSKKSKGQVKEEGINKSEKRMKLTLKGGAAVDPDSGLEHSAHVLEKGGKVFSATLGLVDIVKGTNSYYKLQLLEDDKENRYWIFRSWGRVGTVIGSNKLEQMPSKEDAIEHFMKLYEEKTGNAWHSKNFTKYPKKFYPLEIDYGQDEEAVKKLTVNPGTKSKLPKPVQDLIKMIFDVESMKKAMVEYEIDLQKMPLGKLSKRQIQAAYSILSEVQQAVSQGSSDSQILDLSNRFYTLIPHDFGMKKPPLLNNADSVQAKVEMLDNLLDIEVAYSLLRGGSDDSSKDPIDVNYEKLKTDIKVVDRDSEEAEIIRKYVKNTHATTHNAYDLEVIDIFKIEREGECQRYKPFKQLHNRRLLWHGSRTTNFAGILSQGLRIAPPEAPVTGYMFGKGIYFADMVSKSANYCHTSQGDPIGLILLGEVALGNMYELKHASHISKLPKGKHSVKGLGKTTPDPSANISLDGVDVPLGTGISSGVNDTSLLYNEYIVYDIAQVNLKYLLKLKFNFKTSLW
Sequence of PARP2 (Q9UGN5 whole entry): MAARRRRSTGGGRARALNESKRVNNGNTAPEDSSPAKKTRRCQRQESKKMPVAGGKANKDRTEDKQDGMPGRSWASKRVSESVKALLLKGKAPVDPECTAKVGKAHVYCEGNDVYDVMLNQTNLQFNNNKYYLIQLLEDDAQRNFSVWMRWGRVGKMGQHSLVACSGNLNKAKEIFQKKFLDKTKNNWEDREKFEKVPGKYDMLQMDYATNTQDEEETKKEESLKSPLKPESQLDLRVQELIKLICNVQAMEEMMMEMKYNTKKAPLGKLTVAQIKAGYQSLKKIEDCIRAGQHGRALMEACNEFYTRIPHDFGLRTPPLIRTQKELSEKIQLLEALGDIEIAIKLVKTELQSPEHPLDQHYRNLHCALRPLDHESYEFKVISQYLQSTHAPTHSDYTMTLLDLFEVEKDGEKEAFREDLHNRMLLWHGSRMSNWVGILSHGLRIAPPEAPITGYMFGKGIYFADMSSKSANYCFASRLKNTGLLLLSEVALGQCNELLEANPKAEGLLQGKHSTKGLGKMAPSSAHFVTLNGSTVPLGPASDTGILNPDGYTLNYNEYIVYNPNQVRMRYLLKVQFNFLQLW

Compound	IC50 (DLD-1 BRCA2(-/-) cells)	IC50 (MDA-MB-436 cells)	IC50 (PARP1)	Selectivity PARP2/PARP1 (PARP1)	IC50 (PARP2)	further results
Cc1nc2c(OC(F)F)cc(CN3CCN(c4ccc(C(=O)NC5CC5)nc4F)CC3)c(F)c2[nH]c1=O [Example 61, N-cyclopropyl-5-(4-((8-(difluoromethoxy)-5-fluoro-2-methyl-3-oxo-3,4-dihydroquinoxalin-6-yl)methyl)piperazin-1-yl)-6-fluoropicolinamide]	8.59 nM	20.3 nM	–	–	–	–
CNC(=O)c1ccc(N2CCN(Cc3cc(-c4ccc(F)cc4)c4nc(C)c(=O)[nH]c4c3)CC2)c(F)n1 [Example 10, 6-fluoro-5-(4-((8-(4-fluorophenyl)-2-methyl-3-oxo-3,4-dihydroquinoxalin-6-yl)methyl)piperazin-1-yl)-N-methylpicolinamide]	7.5 nM	1.7 nM	–	–	–	–
CNC(=O)c1ccc(N2CCN(Cc3cc(OC(F)F)c4nc(C(F)F)c(=O)[nH]c4c3)CC2)c(F)n1 [Example 56, 5-(4-((8-(difluoromethoxy)-2-(difluoromethyl)-3-oxo-3,4-dihydroquinoxalin-6-yl)methyl)piperazin-1-yl)-6-fluoro-N-methylpicolinamide]	8.3 nM	14.7 nM	–	–	–	–
CNC(=O)c1ccc(N2CCN(Cc3cc(OC(F)(F)F)c4nc(C)c(=O)[nH]c4c3)CC2)c(C)n1 [Example 64, N,6-dimethyl-5-(4-((2-methyl-3-oxo-8-(trifluoromethoxy)-3,4-dihydroquinoxalin-6-yl)methyl)piperazin-1-yl)picolinamide]	9.8 nM	–	3.6 nM	46.9	169 nM	–
CNC(=O)c1ccc(N2CCN(Cc3cc(-c4ccnn4C)c4nc(C)c(=O)[nH]c4c3)CC2)c(F)n1 [Example 68, 6-fluoro-N-methyl-5-(4-((2-methyl-8-(1-methyl-1H-pyrazol-5-yl)-3-oxo-3,4-dihydroquinoxalin-6-yl)methyl)piperazin-1-yl)picolinamide]	33.3 nM	35.6 nM	–	–	–	–
CNC(=O)c1ccc(N2CCN(Cc3cc(C#Cc4ccccc4)c4nc(C)c(=O)[nH]c4c3F)CC2)c(F)n1 [Example 53, 6-fluoro-5-(4-((5-fluoro-2-methyl-3-oxo-8-(phenylethynyl)-3,4-dihydroquinoxalin-6-yl)methyl)piperazin-1-yl)-N-methylpicolinamide]	963 nM	3940 nM	–	–	–	–
CC#Cc1cc(CN2CCN(c3ccc(C(=O)NC)nc3C)CC2)cc2[nH]c(=O)c(C)nc12 [Example 38, N,6-dimethyl-5-(4-((2-methyl-3-oxo-8-(prop-1-yn-1-yl)-3,4-dihydroquinoxalin-6-yl)methyl)piperazin-1-yl)picolinamide]	15.1 nM	5 nM	–	–	–	–
CNC(=O)c1ccc(N2CCN(Cc3cc(OC(F)F)c4nc(C)c(=O)[nH]c4c3F)CC2)c(F)n1 [Example 14, 5-(4-((8-(difluoromethoxy)-5-fluoro-2-methyl-3-oxo-3,4-dihydroquinoxalin-6-yl)methyl)piperazin-1-yl)-6-fluoro-N-methylpicolinamide]	9.3 nM	–	27.7 nM	348.3	9660 nM	AUC(0-t) ([1]; iv, 2 mg/kg): 4680 ng·h/mL; Cmax ([1]; iv, 2 mg/kg): 2080 ng/mL; half-life ([1]; iv, 2 mg/kg): 3.3 h; AUC(0-t) ([1]; po, 5 mg/kg): 16200 ng·h/mL; Cmax ([1]; po, 5 mg/kg): 3830 ng/mL; half-life ([1]; po, 5 mg/kg): 3.3 h
C=Cc1cc(CN2CCN(c3ccc(C(=O)NC)nc3F)CC2)cc2[nH]c(=O)c(C)nc12 [Example 25, 6-fluoro-N-methyl-5-(4-((2-methyl-3-oxo-8-vinyl-3,4-dihydroquinoxalin-6-yl)methyl)piperazin-1-yl)picolinamide]	1.3 nM	3.5 nM	–	–	–	–
CCNNC(=O)c1ccc(N2CCN(Cc3cc(OC(F)F)c4nc(C)c(=O)[nH]c4c3)CC2)c(F)n1 [Example 66, 5-(4-((8-(difluoromethoxy)-2-methyl-3-oxo-3,4-dihydroquinoxalin-6-yl)methyl)piperazin-1-yl)-N'-ethyl-6-fluoropicolinohydrazide]	7.02 nM	–	2.4 nM	59.6	143 nM	–
CNC(=O)c1ccc(N2CCN(Cc3cc(-c4ccc(OC)cc4)c4nc(C)c(=O)[nH]c4c3)CC2)c(F)n1 [Example 69, 6-fluoro-5-(4-((8-(4-methoxyphenyl)-2-methyl-3-oxo-3,4-dihydroquinoxalin-6-yl)methyl)piperazin-1-yl)-N-methylpyridine amide]	32.6 nM	–	3.2 nM	2751.7	8820 nM	–
CNC(=O)c1ccc(N2CCN(Cc3cc(-c4cnn(C)c4)c4nc(C)c(=O)[nH]c4c3)CC2)c(F)n1 [Example 70, 6-fluoro-N-methyl-5-(4-((2-methyl-8-(1-methyl-1H-pyrazol-4-yl)-3-oxo-3,4-dihydroquinoxalin-6-yl)methyl)piperazin-1-yl)picolinamide]	14.2 nM	13.9 nM	–	–	–	–
CNC(=O)c1ccc(N2CCN(Cc3cc(C#CC4CC4)c4nc(C)c(=O)[nH]c4c3F)CC2)c(F)n1 [Example 22, 5-(4-((8-(cyclopropylethynyl)-5-fluoro-2-methyl-3-oxo-3,4-dihydroquinoxalin-6-yl)methyl)piperazin-1-yl)-6-fluoro-N-methylpicolinamide]	31.8 nM	–	5.5 nM	1813.7	> 10000 nM	–
CNC(=O)c1ccc(N2CCN(Cc3cc(Nc4ccccc4)c4nc(C)c(=O)[nH]c4c3)CC2)c(F)n1 [Example 5, 6-fluoro-N-methyl-5-(4-((2-methyl-3-oxo-8-(phenylamino)-3,4-dihydroquinoxalin-6-yl)methyl)piperazin-1-yl)picolinamide]	6.1 nM	< 0.038 nM	–	–	–	–
CNC(=O)c1ccc(C2=CCN(Cc3cc(OC(F)F)c4nc(C)c(=O)[nH]c4c3F)CC2)c(F)n1 [Example 16, 1'-((8-(difluoromethoxy)-5-fluoro-2-methyl-3-oxo-3,4-dihydroquinoxalin-6-yl)methyl)-2-fluoro-N-methyl-1',2',3',6'-tetrahydro-[3,4'-bipyridine]-6-carboxamide]	–	6.2 nM	2.8 nM	>3625	> 10000 nM	–
CCONC(=O)c1ccc(N2CCN(Cc3cc(OC(F)F)c4nc(C)c(=O)[nH]c4c3)CC2)c(F)n1 [Example 65, 5-(4-((8-(difluoromethoxy)-2-methyl-3-oxo-3,4-dihydroquinoxalin-6-yl)methyl)piperazin-1-yl)-N-ethoxy-6-fluoropicolinamide]	4.27 nM	–	1.9 nM	42.1	80 nM	–
CC#Cc1cc(CN2CCN(c3ccc(C(=O)NC)nc3F)CC2)c(F)c2[nH]c(=O)c(C3CC3)nc12 [Example 48, 5-(4-((2-cyclopropyl-5-fluoro-3-oxo-8-(prop-1-yn-1-yl)-3,4-dihydroquinoxalin-6-yl)methyl)piperazin-1-yl)-6-fluoro-N-methylpicolinamide]	23.6 nM	–	–	–	–	–
CNC(=O)c1ccc(C2=CCN(Cc3cc(OC(F)F)c4nc(C)c(=O)[nH]c4c3)CC2)c(C)n1 [Example 58, 1'-((8-(difluoromethoxy)-2-methyl-3-oxo-3,4-dihydroquinoxalin-6-yl)methyl)-N,2-dimethyl-1',2',3',6'-tetrahydro-[3,4'-bipyridine]-6-carboxamide]	13.6 nM	–	1.1 nM	2192.4	2480 nM	–
